Calls of active or inactive are those of the source. A value given as a limit tells only on which side of the number the result lay.

These results are taken from ChEMBL document CHEMBL1149515, “Small molecule inhibitors of IgE synthesis” (Bioorg Med Chem Lett, 2006).

The test system of one data set is PBL. Description: Inhibition of IL4-induced IgE synthesis in human peripheral blood lymphocytes. Type of data set: functional, cell-based.
The next data set has as its system CYP1A1. Description: Half life assessed as CYP1A1 mediated metabolism at 1 uM. In kind it is ADME.
The test system of a further data set is CYP1A2. Description: Half life assessed as CYP1A2 mediated metabolism at 1 uM. Type of data set: ADME.
Data set [1] is described as follows: Stability in human liver microsome at 1uM. The settings on record: liver microsomes. In kind it is ADME. On the technique in general: Liver microsomes are a subcellular fraction often used to study metabolism.
Data set [2] is described as follows: Lipophilicity, LogD of the compound. In kind it is physicochemical. As to conditions: octanol/water.
For a further data set, the system named is Salmonella typhi. Description: Mutagenic activity against […] by Ames assay. In kind it is functional, organism-based. The settings on record: Salmonella enterica subsp. enterica […]. On the technique in general: In the Ames test, an excess of revertant colonies over the control signals mutagenicity.

As usually defined, the IC50 is the concentration at which inhibition is half-maximal. By half-life is commonly meant the time needed for the level to fall by half in the phase considered. `O=C(CCc1cnc2c(N3CCN(c4ncccn4)CC3)nccn12)N1CCOCC1` registered an IC50 in the data set with PBL above 10000 nM. Moreover, the half-life at 1 µM in the data set on CYP1A1 and with CYP1A2 was above 120 min each time.

For `CN1CCC(NC(=O)c2cn3ccnc3c(N3CCN(c4ccccn4)CC3)n2)CC1`, the half-life at 1 µM in data set [1] is above 120 min; with CYP1A1, 45 min; in the data set with CYP1A2 it was 95 min. The compound also yielded an IC50 with PBL of 37 nM.

Take `O=C(NC1CCNC1)c1cn2ccnc2c(N2CCN(c3ccccn3)CC2)n1` (stereo not drawn): the half-life at 1 µM (in data set [1]; in the data set on CYP1A2) was above 120 min throughout. Besides, in the data set with PBL, the IC50 was 118 nM.

Turning to `c1cn2ccnc2c(N2CCN(C3CCCC3)CC2)n1`, the half-life at 1 µM (in data set [1]; in the data set on CYP1A2) was above 120 min each time. Moreover, in the data set on PBL, the IC50 was above 10000 nM.

Broadly, the logD is the decadic logarithm of the distribution of all forms, ionised or not, between an organic phase and buffer at a given pH. A lower logD goes with lower lipophilicity. In the case of `CCN1CCC(NC(=O)c2nc(N3CCN(c4ncccn4)CC3)c3nccn3c2C)CC1`, the half-life at 1 µM (in data set [1]; with CYP1A1) was above 120 min in each case. For the same compound, the IC50 in the data set with PBL came out at 49 nM. Moreover, the logD in data set [2] is 1.2.

Regarding `CC(C)(C)NC(=O)c1cn2ccnc2c(N2CCN(c3ncccn3)CC2)n1`, the values for the half-life at 1 µM (in data set [1]; with CYP1A1) were 3 min and 13 min, respectively. Further, the IC50 in the data set on PBL is 39 nM. The result with Salmonella typhi was inactive. The logD in data set [2] turned out to be 3.7.

Consider `c1cn2ccnc2c(-c2ccc(N3CCCC3)nc2)n1`, for which the half-life at 1 µM was 14 min in data set [1], below 1 min with CYP1A1 and below 1 min in the data set on CYP1A2. In the data set with PBL, this compound had an IC50 of 55 nM. For the same compound, the logD in data set [2] came to 2.5.

Consider `c1cnc(N2CCN(c3nccn4ccnc34)CC2)nc1`, for which the half-life at 1 µM in data set [1] was 45 min; in the data set with CYP1A1, below 2 min; with CYP1A2, 2 min. In the data set with PBL, this compound yielded an IC50 of 18 nM. Besides, the result with Salmonella typhi was Active. Also, the logD in data set [2] turned out to be 2.
